# Target: FXR (Homo sapiens (Human), UniProt Q96RI1)
# Experiment: FXR EC50 (FXR agonist activity reported with each example)
# Type: cell-based
# FXR, sequence (Q96RI1 262-486): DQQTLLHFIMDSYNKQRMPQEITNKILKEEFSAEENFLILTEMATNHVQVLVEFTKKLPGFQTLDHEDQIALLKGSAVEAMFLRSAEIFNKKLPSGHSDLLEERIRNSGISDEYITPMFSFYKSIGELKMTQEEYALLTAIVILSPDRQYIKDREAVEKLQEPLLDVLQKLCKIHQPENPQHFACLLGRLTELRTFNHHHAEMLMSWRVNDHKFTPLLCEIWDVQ
row,SMILES,EC50
1,Cn1cc(C#CC23CCC(OCc4c(-c5c(Cl)cncc5Cl)noc4C4CC4)(CC2)CC3)c2ccc(C(=O)O)cc21 [Example 399],83 nM
2,COc1ccc2nc(C34CCC(OCc5c(-c6c(Cl)cncc6Cl)noc5C5CC5)(CC3)CC4)ccc2c1C(=O)O [Example 428],120 nM
3,O=C(O)c1cnc(C#CC23CCC(OCc4c(-c5c(Cl)cncc5Cl)noc4C4CC4)(CC2)CC3)c(F)c1 [Example 379],240 nM
4,"O=C(O)c1ccnc(OCC23CCC(OCc4c(-c5c(Cl)cccc5Cl)noc4C4CC4)(CC2)CC3)c1 [Example 111, 2-((4-((5-cyclopropyl-3-(2,6-dichlorophenyl)isoxazol-4-yl)methoxy)bicyclo[2.2.2]octan-1-yl)methoxy)isonicotinic acid]",110 nM
5,CCOc1cc(OCC23CCC(OCc4c(-c5ccccc5C(F)(F)F)noc4C4CC4)(CC2)CC3)cnc1C(=O)O [Example 297],543 nM
6,COc1ccc(C(=O)O)c2ccc(OCC34CCC(OCc5c(-c6c(Cl)cncc6Cl)noc5C5CC5)(CC3)CC4)nc12 [Example 342],33 nM
7,"O=C(O)c1cc(-c2noc(C34CCC(/C=C/c5c(-c6c(Cl)cncc6Cl)noc5C5CC5)(CC3)CC4)n2)cc(C(F)(F)F)c1 [Example 436, (E)-3-(5-(4-(2-(5-cyclopropyl-3-(3,5-dichloropyridin-4-yl)isoxazol-4-yl)vinyl)bicyclo[2.2.2]octan-1-yl)-1,2,4-oxadiazol-3-yl)-5-(trifluoromethyl)benzoic acid]",18 nM
8,"O=C(O)c1cccc(-c2noc(C34CCC(OCc5c(-c6c(Cl)cccc6Cl)noc5C5CC5)(CC3)CO4)n2)c1 [Example 193, 3-(5-(4-((5-cyclopropyl-3-(2,6-dichlorophenyl)isoxazol-4-yl)methoxy)-2-oxabicyclo[2.2.2]octan-1-yl)-1,2,4-oxadiazol-3-yl)benzoic acid]",26 nM
9,"O=C(O)c1cccc(-c2noc(C34CCC(OCc5c(-c6ccccc6OC(F)(F)F)noc5C5CC5)(CC3)CC4)n2)c1 [Example 1, 3-(5-(4-((5-cyclopropyl-3-(2-(trifluoromethoxy)phenyl)isoxazol-4-yl)methoxy)bicyclo[2.2.2]octan-1-yl)-1,2,4-oxadiazol-3-yl)benzoic acid]",110 nM
10,"O=C(O)c1cc(C(F)(F)F)c2cc(OCC34CCC(/C=C/c5c(-c6c(Cl)cncc6Cl)noc5C5CC5)(CC3)CO4)ccc2n1 [Example 500, (E)-6-((4-(2-(5-cyclopropyl-3-(3,5-dichloropyridin-4-yl)isoxazol-4-yl)vinyl)-2-oxabicyclo[2.2.2]octan-1-yl)methoxy)-4-(trifluoromethyl)quinoline-2-carboxylic acid]",160 nM
11,O=C(O)c1ccc(C2CC2)c2nc(C34CCC(OCc5c(C(C6CC6)C6CC6)noc5C5CC5)(CC3)CC4)ccc12 [Example 424],500 nM
12,"Cn1cc(C(=O)O)c2ccc(OCC34CCC(OCc5c(-c6c(Cl)cncc6Cl)noc5C5CC5)(CC3)CC4)cc21 [Example 97, 6-((4-((5-cyclopropyl-3-(3,5-dichloropyridin-4-yl)isoxazol-4-yl)methoxy)bicyclo[2.2.2]octan-1-yl)methoxy)-1-methyl-1H-indole-3-carboxylic acid]",28 nM
13,O=C(O)c1ncc(OCC23CCC(OCc4c(-c5c(Cl)cncc5Cl)noc4C4CC4)(CC2)CC3)cc1OCC1CC1 [Example 337],27 nM
14,O=C(O)c1cccc(NC(=O)C23CCC(C=Cc4c(-c5c(Cl)cccc5Cl)noc4C4CC4)(CC2)CC3)c1 [Example 188],120 nM
15,"CN(C)c1cc(-c2noc(C34CCC(OCc5c(-c6c(Cl)cncc6Cl)noc5C5CC5)(CC3)CC4)n2)cc(C(=O)O)n1 [Example 262, 4-(5-(4-((5-cyclopropyl-3-(3,5-dichloropyridin-4-yl)isoxazol-4-yl)methoxy)bicyclo[2.2.2]octan-1-yl)-1,2,4-oxadiazol-3-yl)-6-(dimethylamino)picolinic acid]",53 nM
16,"CC(C)Oc1cc(C(=O)O)cc(-c2noc(C34CCC(OCc5c(-c6c(Cl)cncc6Cl)noc5C5CC5)(CC3)CC4)n2)c1 [Example 251, 3-(5-(4-((5-cyclopropyl-3-(3,5-dichloropyridin-4-yl)isoxazol-4-yl)methoxy)bicyclo[2.2.2]octan-1-yl)-1,2,4-oxadiazol-3-yl)-5-isopropoxybenzoic acid]",16 nM
17,"COc1cc(OCC23CCC(OCc4c(-c5c(Cl)cncc5Cl)noc4C4CC4)(CC2)CC3)cc(C(=O)O)c1 [Example 321, 3-((4-((5-cyclopropyl-3-(3,5-dichloropyridin-4-yl)isoxazol-4-yl)methoxy)bicyclo[2.2.2]octan-1-yl)methoxy)-5-methoxybenzoic acid]",7 nM
18,COC(=O)c1cccc(NC(=O)C23CCC(C=Cc4c(-c5c(Cl)cccc5Cl)noc4C4CC4)(CC2)C3)c1 [Example 229],3600 nM

row,SMILES,EC50
1,O=C(O)c1cc(-c2noc(C34CCC(OCc5c(-c6c(Cl)cccc6Cl)noc5C5CC5)(CC3)CO4)n2)ccc1F [Example 198],98 nM
2,"O=C(O)c1cccc(C#CC23CCC(OCc4c(-c5c(Cl)cccc5Cl)noc4C4CC4)(CC2)CC3)c1 [Example 130, 3-((4-((5-cyclopropyl-3-(2,6-dichlorophenyl)isoxazol-4-yl)methoxy)bicyclo[2.2.2]octan-1-yl)ethynyl)benzoic acid]",68 nM
3,"O=C(O)c1cccc(-n2cc(C34CCC(OCc5c(-c6c(Cl)cccc6Cl)noc5C5CC5)(CC3)CC4)nn2)c1 [Example 131, 3-(4-(4-((5-cyclopropyl-3-(2,6-dichlorophenyl)isoxazol-4-yl)methoxy)bicyclo[2.2.2]octan-1-yl)-1H-1,2,3-triazol-1-yl)benzoic acid]",460 nM
4,"O=C(O)c1ccc(F)c(OCC23CCC(OCc4c(-c5c(Cl)cncc5Cl)noc4C4CC4)(CC2)CC3)c1 [Example 98, 3-((4-((5-cyclopropyl-3-(3,5-dichloropyridin-4-yl)isoxazol-4-yl)methoxy)bicyclo[2.2.2]octan-1-yl)methoxy)-4-fluorobenzoic acid]",22 nM
5,"COc1cc(-c2noc(C34CCC(OCc5c(-c6c(Cl)cncc6Cl)noc5C5CC5)(CC3)CC4)n2)cc(C(=O)O)c1OC [Example 243, 5-(5-(4-((5-cyclopropyl-3-(3,5-dichloropyridin-4-yl)isoxazol-4-yl)methoxy)bicyclo[2.2.2]octan-1-yl)-1,2,4-oxadiazol-3-yl)-2,3-dimethoxybenzoic acid]",120 nM
6,"O=C(O)c1cc(OC(F)F)cc(-c2noc(C34CCC(/C=C/c5c(-c6c(Cl)cncc6Cl)noc5C5CC5)(CC3)CO4)n2)c1 [Example 479, (E)-3-(5-(4-(2-(5-cyclopropyl-3-(3,5-dichloropyridin-4-yl)isoxazol-4-yl)vinyl)-2-oxabicyclo[2.2.2]octan-1-yl)-1,2,4-oxadiazol-3-yl)-5-(difluoromethoxy)benzoic acid]",360 nM
7,"O=C(O)c1cnn(CC23CCC(OCc4c(-c5c(Cl)cccc5Cl)noc4C4CC4)(CC2)CC3)c1 [Example 76, 1-((4-((5-cyclopropyl-3-(2,6-dichlorophenyl)isoxazol-4-yl)methoxy)bicyclo[2.2.2]octan-1-yl)methyl)-1H-pyrazole-4-carboxylic acid]",290 nM
8,O=C(O)c1sc(OCC23CCC(OCc4c(-c5c(Cl)cncc5Cl)noc4C4CC4)(CC2)CC3)nc1C(F)(F)F [Example 317],210 nM
9,O=C(O)c1cc(-c2noc(C34CCC(OCc5c(-c6ccccc6OC(F)(F)F)noc5C5CC5)(CC3)CC4)n2)ccn1 [Example 49],1200 nM
10,"O=C(O)c1ccc2c(C(O)C34CCC(OCc5c(-c6c(Cl)cccc6Cl)noc5C5CC5)(CC3)CC4)ccnc2c1 (stereo not drawn) [Example 128, 4-((4-((5-cyclopropyl-3-(2,6-dichlorophenyl)isoxazol-4-yl)methoxy)bicyclo[2.2.2]octan-1-yl)(hydroxy)methyl)quinoline-7-carboxylic acid]",700 nM
11,"COc1ccc(C(=O)O)cc1-c1noc(C23CCC(OCc4c(-c5c(Cl)cncc5Cl)noc4C4CC4)(CC2)CC3)n1 [Example 459, 3-(5-(4-((5-cyclopropyl-3-(3,5-dichloropyridin-4-yl)isoxazol-4-yl)methoxy)bicyclo[2.2.2]octan-1-yl)-1,2,4-oxadiazol-3-yl)-4-methoxybenzoic acid]",630 nM
12,O=C(O)c1cccc(/C=C/C23CCC(OCc4c(-c5ccccc5OC(F)(F)F)noc4C4CC4)(CC2)CC3)c1 [Example 40],100 nM
13,"O=C(O)c1cc(F)c2nc(OCC34CCC(OCc5c(-c6c(Cl)cccc6Cl)noc5C5CC5)(CC3)CC4)sc2c1 [Example 83, 2-((4-((5-cyclopropyl-3-(2,6-dichlorophenyl)isoxazol-4-yl)methoxy)bicyclo[2.2.2]octan-1-yl)methoxy)-4-fluorobenzo[d]thiazole-6-carboxylic acid]",18 nM
14,"O=C(O)C1(c2cccc(C(O)C34CCC(OCc5c(-c6c(Cl)cccc6Cl)noc5C5CC5)(CC3)CC4)c2)CC1 (stereo not drawn) [Example 129, 1-(3-((4-((5-cyclopropyl-3-(2,6-dichlorophenyl)isoxazol-4-yl)methoxy)bicyclo[2.2.2]octan-1-yl)(hydroxy)methyl)phenyl)cyclopropane-1-carboxylic acid]",3000 nM
15,"O=C(O)c1cc(-c2noc(C34CCC(OCc5c(-c6c(Cl)cncc6Cl)noc5C5CC5)(CC3)CC4)n2)ccn1 [Example 249, 4-(5-(4-((5-cyclopropyl-3-(3,5-dichloropyridin-4-yl)isoxazol-4-yl)methoxy)bicyclo[2.2.2]octan-1-yl)-1,2,4-oxadiazol-3-yl)picolinic acid]",240 nM
16,O=C(O)c1ccc2nc(C34CCC(OCc5c(-c6ccccc6OC(F)(F)F)noc5C5CC5)(CC3)CC4)sc2c1 [Example 38],360 nM
17,"O=C(O)c1ccc2nc(C34CCC(OCc5c(-c6c(Cl)cccc6Cl)noc5C5CC5)(CC3)CC4)ccc2c1 [Example 134, 2-(4-((5-cyclopropyl-3-(2,6-dichlorophenyl)isoxazol-4-yl)methoxy)bicyclo[2.2.2]octan-1-yl)quinoline-6-carboxylic acid]",83 nM
18,Cn1cc(C(=O)O)c2ccc(C#CC34CCC(OCc5c(-c6c(Cl)cncc6Cl)noc5C5CC5)(CC3)CC4)nc21 [Example 363],260 nM

# From patent US10730863B2, “Bridged bicyclic compounds as farnesoid X receptor modulators” (BRISTOL-MYERS SQUIBB COMPANY, priority 2017, dated 2020)
